In patent publication US20060194837A1, “Tetrahydroisoquinoline compounds” (priority 2004, published 2006) one finds Ki data, which are given here for 28 compounds.

The target of one test is T1, Rat SERT (Rattus norvegicus, UniProt P31652).
T1 construct: A rat brain without cerebellum (Zivic Laboratories, Inc.—Pittsburgh, Pa.) was homogenized; tissue Zivic Laboratories, Inc; host or cells: rat brain without cerebellum, membranes
The experiment in a line: Rat brain SERT binding ([3H]-citalopram displacement). The following applies: rat brain membranes without cerebellum, 0.6 nM [3H]-citalopram, 60 min at 25° C.; read-out: Rat SERT Ki. On the procedure:
The supernatant was removed and re-centrifuged at 15,000 rpm for 30 min. […] Membranes were incubated with 0.6 nM [^3H]-Citalopram plus/minus test compounds for 60 min at 25° C. and harvested by rapid filtration over GF/C glass fiber filters (pretreated with 0.3% polyethylenimine) followed by four washes with ice-cold buffer.

For a further test, the target named is T2, human H3 receptor (Homo sapiens, UniProt Q9Y5N1).
T2 construct: expressed in transfected cells
T2 sequence (Q9Y5N1 whole entry): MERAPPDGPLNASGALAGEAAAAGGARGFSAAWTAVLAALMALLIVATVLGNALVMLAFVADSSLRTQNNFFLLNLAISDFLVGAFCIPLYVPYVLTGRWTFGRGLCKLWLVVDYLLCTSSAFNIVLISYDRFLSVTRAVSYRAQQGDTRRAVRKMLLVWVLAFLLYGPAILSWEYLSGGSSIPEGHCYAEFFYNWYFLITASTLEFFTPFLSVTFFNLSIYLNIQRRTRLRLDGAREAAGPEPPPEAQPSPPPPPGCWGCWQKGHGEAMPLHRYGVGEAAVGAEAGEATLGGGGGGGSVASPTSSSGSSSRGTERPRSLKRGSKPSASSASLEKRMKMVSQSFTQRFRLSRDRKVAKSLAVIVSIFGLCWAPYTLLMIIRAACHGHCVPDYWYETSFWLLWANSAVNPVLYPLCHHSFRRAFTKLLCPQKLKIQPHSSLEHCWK
The test can be described thus: H3 receptor binding (N-[3H]-α-methylhistamine displacement). Particulars: membranes of SK-N-MC cells expressing cloned human H3 receptor, 0.8 nM N-[3H]-α-methylhistamine, 60 min at 25° C. How it is done: Briefly, cell pellets from SK-N-MC cells expressing the human H3 receptor were homogenized in 50 mM Tris-HCl/5 mM EDTA and re-centrifuged at 30,000 g for 30 min. Pellets were re-homogenized in 50 mM Tris/6 mM EDTA (pH 7.4). Membranes were incubated with 0.8 nM N-[^3H]-α-methylhistamine plus/minus test compounds for 60 min at 25° C. and harvested by rapid filtration over GF/C glass fiber filters (pretreated with 0.3% polyethylenimine) followed by four washes with ice-cold buffer. Nonspecific binding was defined in the presence of 10 μM histamine.

Broadly, the Ki is a dissociation constant, usually derived from enzyme kinetics or from competition with a known ligand.

T1 sequence (P31652 whole entry): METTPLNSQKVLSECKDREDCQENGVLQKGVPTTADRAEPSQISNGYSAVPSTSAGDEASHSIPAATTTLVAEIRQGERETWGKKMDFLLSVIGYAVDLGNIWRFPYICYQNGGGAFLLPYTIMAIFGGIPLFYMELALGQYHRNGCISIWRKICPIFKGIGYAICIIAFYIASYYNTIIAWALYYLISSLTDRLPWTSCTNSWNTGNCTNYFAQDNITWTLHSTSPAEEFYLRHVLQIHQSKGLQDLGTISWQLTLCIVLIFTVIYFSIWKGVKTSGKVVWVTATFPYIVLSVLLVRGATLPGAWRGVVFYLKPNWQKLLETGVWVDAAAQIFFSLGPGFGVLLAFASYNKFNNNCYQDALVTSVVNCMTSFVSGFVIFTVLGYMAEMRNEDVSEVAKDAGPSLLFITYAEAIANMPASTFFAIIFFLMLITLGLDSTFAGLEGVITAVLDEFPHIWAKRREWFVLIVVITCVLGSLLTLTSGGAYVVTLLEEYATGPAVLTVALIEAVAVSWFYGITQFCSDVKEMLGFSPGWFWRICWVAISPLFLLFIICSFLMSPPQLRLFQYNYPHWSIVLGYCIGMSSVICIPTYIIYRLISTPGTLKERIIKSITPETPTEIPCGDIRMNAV

As to `CN1Cc2cc(OCCCN3CCC(F)CC3)ccc2C(c2ccc(N(C)C)nc2)C1` (stereo not shown) [Example 188, (5-{7-[3-(4-Fluoro-piperidin-1-yl)-propoxy]-2-methyl-1,2,3,4-tetrahydro-isoquinolin-4-yl}-pyridin-2-yl)-dimethyl-amine], the Ki at Rat SERT was 37 nM; on human H3 receptor, 22 nM.
The matching figures for `COc1ccc(C2CN(C)Cc3cc(OCCCN4CCOC[C@@H]4C)ccc32)cc1F` (stereo partly drawn) [Example 221, 4-(3-Fluoro-4-methoxy-phenyl)-2-methyl-7-[3-(3S-methyl-morpholin-4-yl)-propoxy]-1,2,3,4-tetrahydro-isoquinoline]: 11 nM and 9 nM.
With `CN1Cc2cc(OCCCN3CCOCC3)ccc2C(c2ccc(SC(F)(F)F)cc2)C1` (stereo not shown) [Example 218, 2-Methyl-7-(3-morpholin-4-yl-propoxy)-4-(4-trifluoromethylsulfanyl-phenyl)-1,2,3,4-tetrahydro-isoquinoline], the Ki at Rat SERT was 36 nM; at human H3 receptor, 38 nM.
On the same counts, the results for `COc1ccc(C2CN(C)Cc3c2ccc(OCCCN2CCOCC2)c3C)cc1` (stereo not shown) [Example 269, 4-(4-Methoxy-phenyl)-2,8-dimethyl-7-(3-morpholin-4-yl-propoxy)-1,2,3,4-tetrahydro-isoquinoline] are 23 nM and 44 nM.
The matching figures for `COc1ccc(C2CN(C)Cc3cc(OCCCN4CCC(F)CC4)ccc32)cc1F` (single isomer, unassigned) [Example 144, 4-(3-Fluoro-4-methoxy-phenyl)-7-[3-(4-fluoro-piperidin-1-yl)-propoxy]-2-methyl-1,2,3,4-tetrahydro-isoquinoline]: 5 nM and 6 nM.
On the same counts, the results for `COc1ccc(C2CN(C)Cc3cc(OCCCN4CCC(C(F)(F)F)CC4)ccc32)cc1` (stereo not shown) [Example 38, 4-(4-Methoxy-phenyl)-2-methyl-7-[3-(4-trifluoromethyl-piperidin-1-yl)-propoxy]-1,2,3,4-tetrahydro-isoquinoline] are 29 nM and 38 nM.
`CCNCCCOc1ccc2c(c1)CN(C)CC2c1ccc(OC)cc1` (stereo not shown) [Example 232, Ethyl-{3-[4-(4-methoxy-phenyl)-2-methyl-1,2,3,4-tetrahydro-isoquinolin-7-yloxy]-propyl}-amine]: the results for the Ki on Rat SERT and on human H3 receptor were 1 nM and 20 nM, respectively.
The matching figures for `CN1Cc2cc(OCCCN3CCC(F)CC3)ccc2C(c2ccc(-n3ccnc3)nc2)C1` (stereo not shown) [Example 192, 7-[3-(4-Fluoro-piperidin-1-yl)-propoxy]-4-(6-imidazol-1-yl-pyridin-3-yl)-2-methyl-1,2,3,4-tetrahydro-isoquinoline]: 9 nM and 3 nM.
The matching figures for `COc1ccc(C2CN(C)Cc3cc(OC[C@H]4CNCCO4)ccc32)cc1` (stereo partly drawn) [Example 253, 4-(4-Methoxy-phenyl)-2-methyl-7-(morpholin-2R-ylmethoxy)-1,2,3,4-tetrahydro-isoquinoline]: 2 nM and 263 nM.
On the same counts, the results for `COc1ccc(C2CN(C)Cc3cc(OCC4CCN(C5CCCC5)CC4)ccc32)cc1` (stereo not shown) [Example 86, 7-(1-Cyclopentyl-piperidin-4-ylmethoxy)-4-(4-methoxy-phenyl)-2-methyl-1,2,3,4-tetrahydro-isoquinoline] are 5 nM and 11 nM.
For `COc1ccc(C2CN(C)Cc3cc(OC[C@H]4CN(C5CC5)CCO4)ccc32)cc1` (single isomer, unassigned) [Example 261B, 7-(4-Cyclopropyl-morpholin-2R-ylmethoxy)-4-(4-methoxy-phenyl)-2-methyl-1,2,3,4-tetrahydro-isoquinoline], the figures for the Ki at Rat SERT and on human H3 receptor were 17 nM and 64 nM, respectively.
The matching figures for `COc1ccc(C2CN(CCCO)Cc3cc(OCCCN4CCCCC4)ccc32)cc1` (stereo not shown) [Example 70, 3-[4-(4-Methoxy-phenyl)-7-(3-piperidin-1-yl-propoxy)-3,4-dihydro-1H-isoquinolin-2-yl]-propan-1-ol]: 49 nM and 1 nM.
On the same counts, the results for `COc1ccc(C2CN(C)Cc3cc(OCCCN4CC(C(c5ccccc5)c5ccccc5)C4)ccc32)cc1` (stereo not shown) [Example 137, 7-[3-(3-Benzhydryl-azetidin-1-yl)-propoxy]-4-(4-methoxy-phenyl)-2-methyl-1,2,3,4-tetrahydro-isoquinoline] are 77 nM and 5000 nM.
On the same counts, the results for `COc1ccc(C2CN(C(C)c3ccccc3)Cc3cc(OCCCN4CCOCC4)ccc32)cc1` (single isomer, unassigned) [Example 75A, 4-(4-Methoxy-phenyl)-7-(3-morpholin-4-yl-propoxy)-2-(1-phenyl-ethyl)-1,2,3,4-tetrahydro-isoquinoline] are 2000 nM and 7 nM.
As for `COc1ccc(C2CN(C)Cc3cc(OCCCNC4CCOCC4)ccc32)cc1` (stereo not shown) [Example 223, {3-[4-(4-Methoxy-phenyl)-2-methyl-1,2,3,4-tetrahydro-isoquinolin-7-yloxy]-propyl}-(tetrahydro-pyran-4-yl)-amine], the Ki at Rat SERT turned out to be 5 nM; at human H3 receptor, 59 nM.
Consider `COc1ccc(C2CN(C)Cc3cc(OC[C@@H]4CNCCO4)ccc32)cc1` (stereo partly drawn) [Example 252, 4-(4-Methoxy-phenyl)-2-methyl-7-(morpholin-2S-ylmethoxy)-1,2,3,4-tetrahydro-isoquinoline], for which the inhibitory constant (Ki) at Rat SERT is 2 nM; on human H3 receptor it was 233 nM.
As to `COCCN1CCN(CCCOc2ccc3c(c2)CN(C)CC3c2ccc(OC)cc2)CC1` (stereo not shown) [Example 209, 7-{3-[4-(2-Methoxy-ethyl)-piperazin-1-yl]-propoxy}-4-(4-methoxy-phenyl)-2-methyl-1,2,3,4-tetrahydro-isoquinoline], the Ki was 12 nM on Rat SERT and 176 nM at human H3 receptor.
The matching figures for `COc1ccc(C2CN(C)Cc3cc(OCC4CCN(CC(C)C)CC4)ccc32)c(F)c1` (stereo not shown) [Example 115, 4-(2-Fluoro-4-methoxy-phenyl)-7-(1-isobutyl-piperidin-4-ylmethoxy)-2-methyl-1,2,3,4-tetrahydro-isoquinoline]: 8 nM and 10 nM.
On to `COc1cccc(C2CN(C)Cc3cc(OC4CCNCC4)ccc32)c1` (stereo not shown) [Example 96, 4-(3-Methoxy-phenyl)-2-methyl-7-(piperidin-4-yloxy)-1,2,3,4-tetrahydro-isoquinoline], for which the Ki on Rat SERT is 14 nM; at human H3 receptor it was 182 nM.
The matching figures for `COc1ccc(C2CN(C)Cc3cc(OCC4CCNCC4)ccc32)cc1` (stereo not shown) [Example 78, 4-(4-Methoxy-phenyl)-2-methyl-7-(piperidin-4-ylmethoxy)-1,2,3,4-tetrahydro-isoquinoline]: 2 nM and 96 nM.
As to `COc1ccc(C2CN(C)Cc3cc(OCC4CCNCC4)ccc32)c(F)c1` (stereo not shown) [Example 82, 4-(2-Fluoro-4-methoxy-phenyl)-2-methyl-7-(piperidin-4-ylmethoxy)-1,2,3,4-tetrahydro-isoquinoline], the Ki was found to be 6 nM at Rat SERT and 64 nM on human H3 receptor.
`COc1ccc(C2CN(C)Cc3cc(OCCCN(C4CC4)C4CCN(C)CC4)ccc32)cc1` (stereo not shown) [Example 224, Cyclopropyl-{3-[4-(4-methoxy-phenyl)-2-methyl-1,2,3,4-tetrahydro-isoquinolin-7-yloxy]-propyl}-(1-methyl-piperidin-4-yl)-amine]: the inhibition constant (Ki) on Rat SERT came out at 32 nM; on human H3 receptor it was 61 nM.
The matching figures for `COc1cccc(C2CN(C)Cc3cc(OC4CCN(C5CCC5)CC4)ccc32)c1` (stereo not shown) [Example 99, 7-(1-Cyclobutyl-piperidin-4-yloxy)-4-(3-methoxy-phenyl)-2-methyl-1,2,3,4-tetrahydro-isoquinoline]: 20 nM and 2 nM.
The matching figures for `CCCN1CCC(COc2ccc3c(c2)CN(C)CC3c2cccc(OC)c2)CC1` (stereo not shown) [Example 93, 4-(3-Methoxy-phenyl)-2-methyl-7-(1-propyl-piperidin-4-ylmethoxy) 1,2,3,4-tetrahydro-isoquinoline]: 22 nM and 6 nM.
Regarding `COc1ccc(C2CN(C)Cc3cc(OCC4CCN(C(C)C)CC4)ccc32)c(F)c1` (stereo not shown) [Example 90, 4-(2-Fluoro-4-methoxy-phenyl)-7-(1-isopropyl-piperidin-4-ylmethoxy)-2-methyl-1,2,3,4-tetrahydro-isoquinoline], the Ki at Rat SERT is 9 nM.
`COc1ccc(C2CN(C)Cc3cc(OCCCN4CCC(F)CC4)ccc32)c(F)c1` (single isomer, unassigned) [Example 141, 4-(2-Fluoro-4-methoxy-phenyl)-7-[3-(4-fluoro-piperidin-1-yl)-propoxy]-2-methyl-1,2,3,4-tetrahydro-isoquinoline]: the Ki at Rat SERT was 3 nM.
`COc1ccc(C2CN(C)Cc3cc(OCCCN4CCC(F)CC4)ccc32)c(F)c1` (single isomer, unassigned) [Example 140, 4-(2-Fluoro-4-methoxy-phenyl)-7-[3-(4-fluoro-piperidin-1-yl)-propoxy]-2-methyl-1,2,3,4-tetrahydro-isoquinoline]: the Ki at Rat SERT was found to be 28 nM.
Take `COc1ccc(C2CN(C)Cc3cc(OCCCN4CCC(F)CC4)ccc32)c(F)c1` (racemic) [Example 139, 4-(2-Fluoro-4-methoxy-phenyl)-7-[3-(4-fluoro-piperidin-1-yl)-propoxy]-2-methyl-1,2,3,4-tetrahydro-isoquinoline]: the Ki at Rat SERT came out at 6 nM.
